The text below walks through data of patent US8461083B2, “Herbicidal compounds” (Syngenta Limited, priority 2008, dated 2013).

The structures appear in SMILES notation.

Assay type in all cases: in vivo
Test [1] deals with Amaranthus retoflexus (AMARE). Description: Pre-emergence herbicidal glasshouse test. Particulars: pre-emergence (sprayed after one day cultivation), evaluated after 13 days, 100=total damage to plant, 0=no damage to plant; for PRE Application AMARE, damage to plant: 1000 g/ha; for pest or weed control at 1000 g/ha: Amaranthus retroflexus, 312 h, read-out: PRE Application AMARE, damage to plant. The method in brief:
(§1)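 Seeds were sown in standard soil in pots and sprayed 1 day after sowing (pre-emergence) or after 8 days' cultivation (post-emergence). Compounds were applied at 1000 g/ha in acetone/water (50:50) with 0.5% Tween 20. Plants were kept at 24/16 °C day/night, 14 h light, 65% humidity, and damage was scored after 13 days (0 = none, 100 = total).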

The subject of test [2] is Alopecurus myosuroides (ALOMY). The test can be described thus: Pre-emergence herbicidal glasshouse test. Particulars: pre-emergence (sprayed after one day cultivation), evaluated after 13 days, 100=total damage to plant, 0=no damage to plant; for PRE Application ALOMY, damage to plant: 1000 g/ha; for pest or weed control at 1000 g/ha: Alopecurus myosuroides, 312 h, read-out: PRE Application ALOMY, damage to plant. The method in brief: as §1

The subject of test [3] is Setaria faberi (SETFA). Description: Pre-emergence herbicidal glasshouse test. Particulars: pre-emergence (sprayed after one day cultivation), evaluated after 13 days, 100=total damage to plant, 0=no damage to plant; for PRE Application SETFA, damage to plant: 1000 g/ha; for pest or weed control at 1000 g/ha: Setaria faberi, 312 h, read-out: PRE Application SETFA, damage to plant. Put shortly:
as §1

Test [4] relates to Echinochloa crus-galli (ECHCG). Description: Pre-emergence herbicidal glasshouse test. Particulars: pre-emergence (sprayed after one day cultivation), evaluated after 13 days, 100=total damage to plant, 0=no damage to plant; for PRE Application ECHCG, damage to plant: 1000 g/ha; for pest or weed control at 1000 g/ha: Echinochloa crus-galli, 312 h, read-out: PRE Application ECHCG, damage to plant. The method in brief:
(§2)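 Damage rated 13 days after application on a 0 (none) to 100 (total) scale. Compounds went on at 1000 g/ha in acetone/water 50:50 plus 0.5% Tween 20, one day post-sowing for pre-emergence or eight days for post-emergence. Plants grown at 24/16° C, 14 h light, 65% humidity.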

Test [5] has as its system Solanum nigrum (SOLNI). The test can be described thus: Pre-emergence herbicidal glasshouse test. Particulars: pre-emergence (sprayed after one day cultivation), evaluated after 13 days, 100=total damage to plant, 0=no damage to plant; for PRE Application SOLNI, damage to plant: 1000 g/ha; for pest or weed control at 1000 g/ha: Solanum nigrum, 312 h, read-out: PRE Application SOLNI, damage to plant. Put shortly:
as §1

Test [6] concerns Amaranthus retoflexus (AMARE). The test can be described thus: Post-emergence herbicidal glasshouse test. Particulars: post-emergence (sprayed after 8 days cultivation), evaluated after 13 days, 100=total damage to plant, 0=no damage to plant; for POST Application AMARE, damage to plant: 1000 g/ha; for pest or weed control at 1000 g/ha: Amaranthus retroflexus, 312 h, read-out: POST Application AMARE, damage to plant. The method in brief: as §1

The test system of test [7] is Alopecurus myosuroides (ALOMY). Description: Post-emergence herbicidal glasshouse test. Particulars: post-emergence (sprayed after 8 days cultivation), evaluated after 13 days, 100=total damage to plant, 0=no damage to plant; for POST Application ALOMY, damage to plant: 1000 g/ha; for pest or weed control at 1000 g/ha: Alopecurus myosuroides, 312 h, read-out: POST Application ALOMY, damage to plant. Put shortly:
as §1

The test system of test [8] is Setaria faberi (SETFA). Description: Post-emergence herbicidal glasshouse test. The note with it: post-emergence (sprayed after 8 days cultivation), evaluated after 13 days, 100=total damage to plant, 0=no damage to plant; for POST Application SETFA, damage to plant: 1000 g/ha; for pest or weed control at 1000 g/ha: Setaria faberi, 312 h, read-out: POST Application SETFA, damage to plant. The method in brief: as §1

In test [9] the test system is Echinochloa crus-galli (ECHCG). Description: Post-emergence herbicidal glasshouse test. The note with it: post-emergence (sprayed after 8 days cultivation), evaluated after 13 days, 100=total damage to plant, 0=no damage to plant; for POST Application ECHCG, damage to plant: 1000 g/ha; for pest or weed control at 1000 g/ha: Echinochloa crus-galli, 312 h, read-out: POST Application ECHCG, damage to plant. The method in brief:
as §2

Test [10] concerns Solanum nigrum (SOLNI). The test can be described thus: Post-emergence herbicidal glasshouse test. Particulars: post-emergence (sprayed after 8 days cultivation), evaluated after 13 days, 100=total damage to plant, 0=no damage to plant; for POST Application SOLNI, damage to plant: 1000 g/ha; for pest or weed control at 1000 g/ha: Solanum nigrum, 312 h, read-out: POST Application SOLNI, damage to plant. Put shortly: as §1

In the case of `O=C1CCCC(=O)C1C(=O)c1cc2ccc(=O)n(CCF)c2nc1C(F)(F)F` [Compound 2.11, 2-{8-(2-fluoroethyl)-7-oxo-7,8-dihydro-2-trifluoromethyl-[1,8]-naphthyridine-3-carbony}-cyclohexane-1,3-dione], the “PRE Application AMARE, damage to plant” value in test [1] is recorded as 60. The “PRE Application ALOMY, damage to plant” value in test [2] was 40. Besides, the “PRE Application SETFA, damage to plant” value in test [3] is recorded as 90. The “PRE Application ECHCG, damage to plant” value in test [4] was 100. Also, in test [5], the “PRE Application SOLNI, damage to plant” value was 100. Moreover, the “POST Application AMARE, damage to plant” value in test [6] is 100. For the same compound, the “POST Application ALOMY, damage to plant” value in test [7] turned out to be 90. In addition, in test [8], the “POST Application SETFA, damage to plant” value came to 90. The “POST Application ECHCG, damage to plant” value in test [9] is 90. The “POST Application SOLNI, damage to plant” value in [10] is recorded as 100.
As for `CC#CCn1c(=O)ccc2cc(C(=O)C3C(=O)CCCC3=O)c(C(F)(F)F)nc21` [Compound 2.19, 2-(8-(But-2-ynyl)-7-oxo-7,8-dihydro-2-trifluoromethyl-[1,8]-naphthyridine-3-carbony)-cyclohexane-1,3-dione], the “PRE Application AMARE, damage to plant” value in test [1] amounted to 100. Besides, the “PRE Application ALOMY, damage to plant” value in test [2] turned out to be 100. Also, the “PRE Application SETFA, damage to plant” value in test [3] is 100. Besides, the “PRE Application ECHCG, damage to plant” value in [4] was determined as 100. The “PRE Application SOLNI, damage to plant” value in test [5] is reported as 100. Moreover, the “POST Application AMARE, damage to plant” value in test [6] came to 70. The “POST Application ALOMY, damage to plant” value in test [7] was 100. For the same compound, in test [8], the “POST Application SETFA, damage to plant” value amounted to 100. In [9], the “POST Application ECHCG, damage to plant” value came out at 90. Moreover, the “POST Application SOLNI, damage to plant” value in test [10] worked out at 100.
In the case of `CCOc1ccc2cc(C(=O)C3=C(OC(=O)C(C)C)CCCC3=O)c(C(F)(F)F)nc2n1` [Compound 4.19, isobutyric acid 2-(7-ethoxy-2-trifluoromethyl-[1,8]-naphthyridine-3-carbonyl)-3-oxo-cyclohex-1-enyl ester], the pest or weed control at 1000 g/ha was 100% in test [1]; 70% in test [2]; 100% in test [3]; 100% in [4]; 100% in test [5]; 70% in test [6]. For the same compound, the pest or weed control at 1000 g/ha in [7] stood at 80%; in [8] it was 90%; in [9], 80%; in [10] it was 90%.
Regarding `O=C1CCCC(=O)C1C(=O)c1cc2ccc(=O)n(CC(F)F)c2nc1C(F)(F)F` [Compound 2.4, 2-{8-(2,2-difluoroethyl)-7-oxo-7,8-dihydro-2-trifluoromethyl-[1,8]-naphthyridine-3-carbony}-cyclohexane-1,3-dione], the “PRE Application AMARE, damage to plant” value in [1] was 90. Also, in test [2], the “PRE Application ALOMY, damage to plant” value amounted to 40. In test [3], the “PRE Application SETFA, damage to plant” value was 70. In addition, the “PRE Application ECHCG, damage to plant” value in [4] is listed as 90. The “PRE Application SOLNI, damage to plant” value in test [5] is 90. In [6], the “POST Application AMARE, damage to plant” value is 60. Further, the “POST Application ALOMY, damage to plant” value in [7] is recorded as 60. Besides, the “POST Application SETFA, damage to plant” value in [8] stood at 80. Moreover, the “POST Application ECHCG, damage to plant” value in [9] was determined as 70. In test [10], the “POST Application SOLNI, damage to plant” value is listed as 90.
For the compound `CCNc1nc2nc(C(F)(F)F)c(C(=O)C3C(=O)CCCC3=O)cc2cc1F` [Compound 1.84], the pest or weed control at 1000 g/ha was 100% in test [1]; 60% in test [2]; 100% in test [3]; 100% in test [4]; 100% in [5]; 80% in test [6]. Further, the pest or weed control at 1000 g/ha was 70% in [7], 80% in [8], 80% in test [9] and 80% in test [10].
As to `CCCCCCCC(=O)OC1=C(C(=O)c2cc3cc(F)c(C)nc3nc2C(F)(F)F)C(=O)CCC1` [Compound 4.22, n-Octanoic acid 2-(6-fluoro-7-methyl-2-trifluoromethyl-[1,8]-naphthyridine-3-carbonyl)-3-oxo-cyclohex-1-enyl ester], the pest or weed control at 1000 g/ha in test [1] came to 100%; in test [2] it was 60%; in test [3], 100%; in test [4] it was 100%; in test [5], 100%; in [6] it was 90%. Also, the pest or weed control at 1000 g/ha in [7] turned out to be 70%; in [8] it was 80%; in test [9] it was 90%; in [10], 90%.
With `Cc1nc2nc(C(F)(F)F)c(C(=O)C3C(=O)C(C)(C)OC(C)(C)C3=O)cc2cc1F` [Compound 5.2], the pest or weed control at 1000 g/ha in [1] was 100%; in [2], 90%; in [3], 100%; in [4], 100%; in test [5] it was 100%; in test [6], 90%. In addition, the pest or weed control at 1000 g/ha in test [7] turned out to be 70%; in test [8] it was 80%; in test [9], 80%; in test [10], 70%.
For the compound `COCc1nc2nc(C(F)(F)F)ccc2cc1C(=O)C1C(=O)CCCC1=O` [Compound 1.100, 2-[2-(methoxymethyl)-7-trifluoromethyl-[1,8]-naphthyridine-3-carbony]-cyclohexane-1,3-dione], the “PRE Application AMARE, damage to plant” value in test [1] came to 100. Moreover, in test [2], the “PRE Application ALOMY, damage to plant” value is 20. For the same compound, in test [3], the “PRE Application SETFA, damage to plant” value came out at 100. Also, the “PRE Application ECHCG, damage to plant” value in test [4] came out at 100. Besides, the “PRE Application SOLNI, damage to plant” value in test [5] is 100. Besides, the “POST Application AMARE, damage to plant” value in [6] was found to be 90. Moreover, the “POST Application ALOMY, damage to plant” value in [7] was 40. The “POST Application SETFA, damage to plant” value in [8] is listed as 80. The “POST Application ECHCG, damage to plant” value in test [9] turned out to be 80. For the same compound, the “POST Application SOLNI, damage to plant” value in test [10] was determined as 80.
Regarding `O=C1CCCC(=O)C1C(=O)c1cc2ccc(=O)n(CCc3ccccc3)c2nc1C(F)(F)F` [Compound 2.15, 2-{8-(2-phenylethyl)-7-oxo-7,8-dihydro-2-trifluoromethyl-[1,8]-naphthyridine-3-carbonyl}-cyclohexane-1,3-dione], the pest or weed control at 1000 g/ha in [1] is 30%; in [2] it was 10%; in test [3] it was 40%; in [4], 90%; in [5] it was 90%; in test [6], 70%. In addition, the pest or weed control at 1000 g/ha was 40% in test [7], 90% in test [8], 80% in test [9] and 90% in test [10].
As for `CCCCc1nc2nc(C(F)(F)F)c(C(=O)C3C(=O)CCCC3=O)cc2cc1F` [Compound 1.86, 2-[7-butyl-6-fluoro-2-trifluoromethyl-[1,8]-naphthyridine-3carbony]-cyclohexane-1,3-dione], the pest or weed control at 1000 g/ha in test [1] was 100%; in test [2] it was 80%; in test [3], 100%; in [4] it was 100%; in test [5], 100%; in test [6] it was 100%. For the same compound, the pest or weed control at 1000 g/ha in test [7] was determined as 70%; in [8], 90%; in test [9], 80%; in test [10], 90%.
